Counter-ions that a name gives are not always drawn.
Experiments:
[1] = test system: rat carrageenan edema model; test: Carrageenan edema in the rat (paw swelling); type: in vivo; settings: for % inhibition of paw swelling: 3 mg/kg p.o.
Method: Carrageenan edema in the rat: The effects of COMPOUND A are investigated in the carrageenan edema model. In this model an acute paw swelling is induced by the sub-plantar injection of carrageenan. The paw swelling has a duration of approximately 8 hours and is completely resolved at 24 hours. The model is used to assess anti-inflammatory activities of new therapeutics and is also sensitive to drugs such as COX-inhibitors like Diclofenac, which is used as a positive control compound in the model.
Method: Male OFA rats (5 animals/group) are treated orally with COMPOUND A (1, 3 and 9 mg/kg), Diclofenac (3 mg/kg) or vehicle (placebo formulation). One hour later (0 hours) the rats receive a 100 μl intra-plantar injection of a 1% w/v carrageenan solution in 0.9% saline in the hind paw and the diameter of the paw is measured by means of a micro-caliper. The paw diameter measurements are repeated 3 and 5 hours after injection of the carrageenan. Percentage inhibition of paw swelling at 3 and 5 hours is calculated by reference to vehicle treated animals (0% inhibition).
Edema is induced by a sub-plantar injection of carrageenan in the paw of the rat. Paw diameters are measured at the time of carrageenan injection (0 hours) and at 3 and 5 hours. Compounds are administered 1 hour before the carrageenan injection. COMPOUND A was dosed at 1, 3 and 9 mg/kg p.o. and Diclofenac at 3 mg/kg p.o.

[2] = test system: collagen-induced arthritis in the rats; test: Collagen-induced arthritis in the rats, hind paw swelling; type: in vivo, rat
From the text: Animal models of RA need to reflect at least some of the features found in human RA (Billingham et al., 1979). Collagen-induced arthritis (CIA) has been proposed to meet these requirements (Durie et al., 1994). Especially the similarity in the joint pathophysiology makes this animal model most attractive for the evaluation of anti-rheumatic drugs (Takeshita et al., 1997). Synovial hyperplasia, which is an integral part of the disease, parallels the migration of leukocytes into the joint space; erosion and destruction of the cartilage surface can also be found (Holmdahl et al., 1985). The rat CIA, originally described by Trentham et al. (1977), was established and extensive studies with CsA were done, including three-dimensional magnetic resonance imaging (MRI) and histology (Beckmann et al., 1995; 1998). Differences in the susceptibility of several rat strains for the development of the disease have been reported (Cremer et al., 1995; Kamada et al., 1997; Knoerzer et al., 1997).
(§1) Method: For this study, COMPOUND A and COX-inhibitor Diclofenac are dissolved in a solvent containing 5% of glucose (5 ml/kg). Compounds are given orally once a day. Female rats of the WAGxBUF/F1 crossbred strain (weight 130 g) are used. The animals are divided into several groups, one placebo group (N=8), and four treatment groups (each N=7-8). Treatment starts on peak of disease (day 0) and continues for 11 days. Swelling is assessed at regular time intervals by measuring the external thickness of the hind paws in the region of the metatarsals using a micro-caliper. Tissue samples for histological evaluation are obtained at the end of the in vivo experiment, 5 h after the last oral dose of COMPOUND A or placebo on day 11.
Results shown are means±SEM of groups of each 4-8 animals of paw diameters in mm on day-12 (before the immunization with Type II collagen in incomplete Freund's adjuvant), day 0 (start of treatment) and day 11 (end of treatment).
The data shown represent the ability of the treatment (COMPOUND A at 4 different increasing doses) to reduce the volume of the hind paw measured at day 2, day 7 and day 11.

[3] = test system: collagen-induced arthritis in the rats; test: Collagen-induced arthritis in the rats, histological evaluation of hind paws; type: in vivo, rat; settings: 1 mg/kg/day p.o., day 11
Method: as §1
Hind paws from control arthritic rats (vehicle-treated), taken post-mortem at the end of day 11 of the treatment, obtained relatively high histological scorings compared to histological scores of animals treated with COMPOUND A (0.3, 1, 3 and 9 mg/kg) or Diclofenac (1 mg/kg).

[4] = test system: established Adjuvant-induced arthritis in rats; test: Established adjuvant-induced arthritis in rats (therapeutic dosing schedule); type: in vivo, rat; settings: 1 mg/kg/day p.o., 7 day treatment (Table 7)
From the text: Adjuvant arthritis can be treated using two different dosing schedules; either starting at the time of immunization with adjuvant (prophylactic dosing) or from day 15 when the arthritic response is already established (therapeutic dosing). It is more difficult to inhibit adjuvant arthritis with the therapeutic dosing schedule as compared to the prophylactic schedule. Both versions of adjuvant arthritis are, however, extremely sensitive to the effects of both non-selective COX inhibitors and COX 2 selective inhibitors where 70-90% inhibition of swelling can be achieved at appropriate doses. These models may be predictive for some of the processes thought to be relevant in rheumatoid arthritis.
Method: Female Wistar rats weighing 150-170 g (housed in standard conditions, 5 animals per cage, with food and water ad libitum) are injected i.d. at the base of the tail with 0.1 ml of mineral oil containing 0.6 mg of lyophilized heat-killed Mycobacterium tuberculosis. The rats are treated orally with COMPOUND A or placebo formulation from day 15 to day 22 (therapeutic dosing schedule) or with COMPOUND A from day 0 to day 14 after immunization (prophylactic dosing schedule). At the end of the experiment, the swelling of the tarsal joints is measured by means of a micro-caliper. For the comparison study to Diclofenac both compounds are given from day 15 to day 29 with readouts at day 22 and 29. Percentage inhibition of paw swelling is calculated by reference to placebo treated arthritic animals (0% inhibition) and placebo treated normal animals (100% inhibition). Five animals are used per group. Data are analyzed using Kruskal-Wallis non-parametric ANOVA followed by Dunn's Multiple Comparison test.

Row | SMILES | melting point | % inhibition of paw swelling ([1]; 3 hrs after carrageenan) | % inhibition of paw swelling ([1]; 5 hrs after carrageenan) | inhibition in the carrageenan edema model ([1]; 3 mg/kg, at both times (3 and 5 hours)) | hind paw diameter, mean ± SEM ([2]; 1 mg/kg group, Day 0 (start of treatment)) | hind paw diameter, mean ± SEM ([2]; 1 mg/kg group, Day −12 (before immunization)) | median inhibition of swelling, analysis of the AUC during day 0 to 11 ([2]; 1 mg/kg per day p.o.) | hind paw diameter, mean ± SEM ([2]; 1 mg/kg per day p.o., Day 11 (end of treatment)) | Bone apposition, effect on histological score [3] | Cartilage damage, effect on histological score [3] | Infiltration of cells, effect on histological score [3] | Loss of PG, effect on histological score [3] | Swelling (mm) ± S.D. [4]
1 | COC1=Nc2cc(Cl)ccc2/C(=C/C(=O)O)c2sccc21 [Compound 1.001, [7-Chloro-10-methoxy-3-thia-9-aza-benzo[f]azulen-(4Z)-ylidene]-acetic acid] | 186 to 188 °C | – | – | – | – | – | – | – | – | – | – | – | –
2 | O=C(O)Cc1ccccc1Nc1c(Cl)cccc1Cl [Diclofenac, sodium salt of 2-[(2,6-dichlorophenyl)amino]benzeneacetic acid, reference compound] | – | 91% | 87% | 87-91% | 5.300 ± 0.265 mm | 3.038 ± 0.024 mm | 57±9.9% | 3.750 ± 0.029 mm | −38% | −32% | −22% | −24% | 4.27 ± 0.31 mm

— patent US8258128B2, “Organic compounds” (Novartis AG, priority 2006, dated 2012)
